Assay results from patent publication US12201679B2, “Epitope-targeted peptide immunostimulants” (priority 2019, dated 2025).
“Also recorded” adds a separate entry of the source. Bridge positions count the residues as written; N and C are the ends. Square brackets hold non-standard residues; d marks the D form. Triazole bridges read from a SMILES are 1,4-linked. Ends that are not written are not given here. Peptide text beside a SMILES is read from it. Lys(N3) = [N-]=[N+]=NCCCC[C@H](N)C(=O)O; Pra = C#CC[C@H](N)C(=O)O

Assays:
[1] = biological target: full-length recombinant MrkA protein (Klebsiella pneumoniae, UniProt P12267); format: binding; details: sandwich ELISA, alanine scan and analogues
Text: HPraGly is present before X1 in each peptide and Az4 follows X5 in each peptide.

[2] = test system: wild type KPPR1 (ATCC 43816) cells; test: Whole-cell ELISA, biotinylated PCC, wild type KPPR1; format: cell-based, Klebsiella pneumoniae; details: biotinylated PCC 5 μM down to 5 nM, G-CAA media
Experimental: In this assay, bacteria are exposed to biotinylated PCC ligands, then SAv-horseradish peroxidase (SAv-HRP), and then developed to produce a colorometric signal that correlates with SAv-HRP binding.
Whole-cell ELISA assays were conducted on the wild type version of the clinically-relevant strain of K. pneumoniae, KPPR1 (ATCC 43816). Wild type KPPR1 cells were cultured in G-CAA media to promote fimbrial expression (54), and MrkA expression in KPPR1 was confirmed by a western blot (FIG. 5B inset, full blot in FIG. 9).
(§1) Detection of the binding of biotinylated PCCs to bacterial surface was performed as follows. 10^8 bacteria from a culture grown overnight were used for each test. Bacteria were incubated with PBS containing 1% BSA (PBS-BSA) for 1 h at 37° C., washed once with PBS, and then incubated with 5 μM of the biotinylated PCC in PBS-BSA for 1 h at 37° C. After washing thrice with PBS to remove unbound PCCs, bacteria were incubated with Streptavidin-HRP (1:1000) for 1 h at 37° C. Bacteria were washed thoroughly and the TMB reagent was added until visible coloration was observed. The reaction was quenched using 2N H2SO4 and absorbance was measured at 450 nm.

[3] = test system: MrkA-knockout KPPR1 cells; test: Whole-cell ELISA, biotinylated PCC, MrkA-knockout KPPR1; format: cell-based, Klebsiella pneumoniae
Experimental: ELISA signals were only observed for K. pneumoniae cells (strain BAA 1705) cultured in G-CAA (FIG. 11A), when treated with PCCs at concentrations of 5 μM or lower.
as §1

[4] = test system: K. pneumoniae (strains BAA 1705 & 2146); test: Whole-cell ELISA, biotinylated PCC, multidrug-resistant K. pneumoniae; format: cell-based, Klebsiella pneumoniae; details: for whole-cell ELISA binding at high PCC concentration: strain BAA 1705, 50 μM PCC, LB or G-CAA; for whole-cell ELISA 450 nm absorbance, cells cultured in G-CAA (high MrkA) / whole-cell ELISA 450 nm absorbance, cells cultured in LB (low MrkA): strain BAA 1705, PCC 5 μM to 5 nM
Experimental: as §1, with “Bacteria were incubated with PBS containing 1% BSA (PBS-BSA) for 1 h at 37° C., washed once with PBS, and then incubated with 5 μM of the biotinylated PCC in PBS-BSA for 1 h at 37° C.” left out

[5] = test system: Escherichia coli; test: Whole-cell ELISA, biotinylated PCC, E. coli; format: cell-based; details: biotinylated PCC at 5 μM, FIG. 5C
Experimental: (§2) Whole-cell ELISA data in FIG. 5C show strong signal from the two strains of K. pneumoniae (BAA 1705 and BAA 2146) but only weak signals from Escherichia coli (E. coli) or Salmonella typhimurium (S. typhimurium) cells. […] In these tests, droplets of phosphate buffered solution containing live bacteria or heat-killed bacteria and various concentrations of (NH4)2SO4 at 10 m or 30 m following mixing were imaged. Aggregation in each droplet was assessed by visual inspection and scored as indicating non-aggregated, low levels of aggregation, or extensive aggregation. All droplets were on a single glass slide and image acquisition of all droplets took less than a minute for each 10 m and 30 m time point.
as §1

[6] = test system: Salmonella typhimurium; test: Whole-cell ELISA, biotinylated PCC, S. typhimurium; format: cell-based; details: biotinylated PCC at 5 μM, FIG. 5C
Experimental: as §2, §1

[7] = test system: K. pneumoniae cells, BAA 1705 and BAA 2146; test: Whole-cell ELISA, anti-DNP recruitment to bacterial cell surfaces; format: cell-based, Klebsiella pneumoniae; details: cy(LLFFF)-DNP 5 or 10 μM; dummy cy(HNGPT)-DNP 50 and 100 μM; plus anti-DNP
Experimental: FIG. 12 is a plot of 450 nm absorbances obtained from a cell-based ELISA assay conducted on two strains of K. pneumoniae cells, BAA 1705 (black) and BAA 2146 (orange), that were either untreated or opsonized by EPIs (AR-PCCs) and/or antibodies. […] This establishes EPI-driven opsonization by cy(LLFFF)-DNP (SEQ ID NO:5).
The protocol for detecting anti-DNP recruitment to bacterial cell surfaces is as follows. Bacteria were incubated with the desired concentration of DNP-conjugated PCCs in PBS-BSA for 1 h at 37° C. Residual PCCs were washed off by using PBS-BSA and bacteria were incubated with anti-DNP antibody (1:1000) for 1 h at 37° C. After washing, bacteria were incubated with HRP conjugated secondary antibody (Bio-Rad) at a dilution of 1:10,000 for 1 h at 37° C. Unbound antibody was washed off by using PBS-BSA and the cells were then developed by using TMB reagent. The reaction was quenched using 2N H2SO4 and absorbance was measured at 450 nm. Anti-MrkA antibody was procured from Biorbyt (orb51318) and used at a concentration of 5 μg/mL, and K. pneumoniae antiserum was obtained from abcam (ab20947) and used at a concentration of 5 μg/mL.

[8] = test system: K. pneumoniae cells (strain BAA 1705); test: Gentamicin protection assay: phagocytosis and opsonophagocytic killing (OPK) by macrophages; format: cell-based, Klebsiella pneumoniae
Experimental: It also tested whether DNP-conjugated EPIs could promote the opsonophagocytic killing (OPK) of K. pneumoniae by macrophages. This was tested by using an OPK assay. Briefly, K. pneumoniae cells were treated with EPI and then anti-DNP antibody before being exposed to macrophages for either 6 or 24 hours. During this incubation period, macrophages that recognize K. pneumoniae cells will phagocytose them, and phagocytosed bacteria will remain viable for up to 6 hours, but within 24 hours are rendered inviable by OPK. Thus, macrophages were isolated after 6 and 24 hours of incubation with K. pneumoniae, lysed them, and plated and grew the lysate, which yielded bacterial colonies that reflect the phagocytosis (at 6 hrs) or OPK (at 24 hrs) of bacteria.
Given that cy(LLFFF)-DNP (SEQ ID NO:5) recruits antibodies to K. pneumoniae surfaces, it was expected that K. pneumoniae opsonized in this manner would be more susceptible to phagocytosis by macrophages. AR-PCC-driven phagocytosis and OPK were quantified by a gentamicin protection assay, as depicted in FIG. 7A. For this assay, K. pneumoniae cells (strain BAA 1705) were treated with cy(LLFFF)-DNP (SEQ ID NO:5), opsonized by anti-DNP antibodies, and then incubated with murine bone-marrow-derived macrophages (BMDMs). BMDMs were subsequently exposed to a solution containing gentamicin, to which K. pneumoniae strain BAA 1705 is susceptible, to kill any extracellular bacteria. Phagocytosed bacteria remain viable inside BMDMs for at least 1 h, yet are rendered inviable after 24 h by OPK (FIG. 13). Macrophages harvested at 1 h and 24 h were lysed and plated to generate bacterial colonies, which were enumerated to quantify phagocytosis and OPK.
Klebsiella pneumoniae BAA1705 was treated with DNP-PCCs followed by incubation with anti-DNP antibody, as described above in the “Cell-Based ELISAs” section. These opsonized bacteria were then used to infect BMDMs at a multiplicity of infection of 50 for 0.5 h at 37° C. Bacteria were then washed by using RPMI 1640 Media and BMDMs were left in cell culture medium containing gentamicin (100 μg/ml). After 1 h and 24 h BMDMs were washed to remove gentamicin and intracellular bacteria were harvested by lysing BMDMs in RPMI media containing 0.2% Triton X 100. Bacterial CFUs were enumerated by plating onto LB agar. Bacterial counts at 1 h indicated the degree of opsonization while those at 24 h served as a measure of microbicidal activity of macrophages. For these measurements, anti-MrkA antibody and K. pneumoniae antiserum were used at dilutions of 5 μg/mL each.

[9] = biological target: SynEp 1 (Klebsiella pneumoniae, UniProt P12267, V41X); test: Epitope selectivity sandwich ELISA, immobilized SynEp 1; details: DNP-conjugated ligand at 500 nM, background biotin-PEG6
[10] = test system: K. pneumoniae cells (strain BAA 2146); test: Flow cytometry, recruitment of fluorescent anti-DNP antibodies; format: cell-based, Klebsiella pneumoniae; details: 50 μM AR-PCC plus Alexafluor 488 anti-DNP
[11] = test system: live MRSA cells or heat-killed MRSA cells; test: ELISA, PCC-driven SAv-HRP recruitment to MRSA cells; format: cell-based, Staphylococcus aureus; details: biotinylated PCC, with or without 0.4 micrograms/mL tunicamycin
Experimental: FIG. 16A-16B are graphs showing PCC-driven recruitment of streptavidin-horseradish peroxidase (SAv-HRP) conjugate to live MRSA cells (FIG. 16A) or heat-killed MRSA cells (FIG. 16B) cultured under different antibiotic conditions via enzyme-linked Immunosorbent Assays (ELISAs). All tests were conducted by coating the antigen (MRSA cells) onto the wells of 96-well plates and then exposing the wells solutions containing biotinylated PCCs, then SAv-HRP, then HRP substrate followed by detection via absorbance at 450 nm. Absorbance values greater than the “no PCC” background indicate that several PCCs recruit SAv-HRP to either live cells (FIG. 16A) or heat-killed cells (FIG. 16B) cultured either without antibiotic (“−tunicamycin”, blue bars) or with 0.4 micrograms/mL of tunicamycin (“+tunicamycin”, red), which reduces the expression of wall teichoic aids by MRSA. All measurements were conducted in triplicate and error bars reflect standard deviations. The PCC sequences are, from left to right in both graphs, SEQ ID NOs: 6, 23, 34, and 29.
The recruitment ability of selected PCCs was assessed by PCC-driven recruitment of streptavidin-horseradish peroxidase (SAv-HRP) conjugate to live MRSA cells (FIG. 16A) or heat-killed MRSA cells (FIG. 16B) cultured under different antibiotic conditions via enzyme-linked Immunosorbent Assays (ELISAs). […]

CC(C)C[C@@H]1NC(=O)[C@H](CC(C)C)NC(=O)[C@@H](N)Cc2cn(nn2)CCCC[C@@H](C(=O)O)NC(=O)[C@H](Cc2ccccc2)NC(=O)[C@H](Cc2ccccc2)NC(=O)[C@H](Cc2ccccc2)NC1=O [cy(LLFFF)] (H-[Pra]LLFFF[Lys(N3)]-OH; triazole 1-7)
binding to full-length MrkA compared to cy(LLFFF) [1]: highest affinity | whole-cell ELISA signal, wild type KPPR1 [2]: strong signals; also recorded: binds wild type MrkA-expressing KPPR1 cells | whole-cell ELISA signal, MrkA-knockout KPPR1 [3]: comparable to baseline; also recorded: but not MrkA-knockout KPPR1 | whole-cell ELISA binding at high PCC concentration [4]: bound K. pneumoniae cells regardless of MrkA-expression level; also recorded: strong and comparable ELISA signals | whole-cell ELISA 450 nm absorbance, cells cultured in G-CAA (high MrkA) [4]: strong absorbances | whole-cell ELISA 450 nm absorbance, cells cultured in LB (low MrkA) [4]: near-baseline absorbances | binding selectivity towards MrkA-expressing K. pneumoniae cells versus E. coli and S. typhimurium ([4]; whole-cell ELISA, FIG. 5C): excellent binding selectivity | whole-cell ELISA signal, E. coli [5]: small absorbances; also recorded: weak signals | whole-cell ELISA signal, S. typhimurium [6]: small absorbances; also recorded: weak signals | 450 nm absorbance, anti-DNP opsonization of K. pneumoniae [7]: much larger signal | CFU, DNP-conjugated EPI plus anti-DNP, macrophages harvested at 6 hrs ([8]; 6 hrs): more than 80,000 CFU | cell counts, DNP-conjugated EPI only (no antibody), macrophages harvested at 6 hrs ([8]; 6 hrs): ~35,000 | cell counts at 24 h (OPK) ([8]; 24 h of incubation): little to no cell counts | ELISA signal on SynEp 1 [9]: Negative signals

cy(HNGPT)-DNP (cyclo(HNGPT); also: DNP label) [reference compound]
450 nm absorbance, anti-DNP opsonization of K. pneumoniae [7]: Much smaller signals | fluorescence intensity of cells (predominantly) [10]: < 1.0×10^1 intensity

cy(LLFFA) (cyclic)
whole-cell ELISA signal, wild type KPPR1 [2]: much lower intensities; also recorded: Much lower binding | whole-cell ELISA signal, MrkA-knockout KPPR1 [3]: comparable to baseline; also recorded: Much lower binding | whole-cell ELISA signal, K. pneumoniae BAA 1705 and BAA 2146 ([4]; biotinylated PCC at 5 μM, FIG. 5C): low signals; also recorded: no or minimal binding above baseline | whole-cell ELISA binding at high PCC concentration [4]: bound K. pneumoniae cells regardless of MrkA-expression level; also recorded: strong and comparable ELISA signals | whole-cell ELISA 450 nm absorbance, cells cultured in G-CAA (high MrkA) [4]: near-baseline absorbances | whole-cell ELISA 450 nm absorbance, cells cultured in LB (low MrkA) [4]: near-baseline absorbances | whole-cell ELISA signal, E. coli [5]: low signals | whole-cell ELISA signal, S. typhimurium [6]: low signals | colony counts at 1 h, EPI plus anti-DNP antibody ([8]; 5 μM AR-PCC, murine BMDMs, 1 h): 85,000 CFU

cy(akkrp) ([dA][dK][dK][dR][dP]; not fully specified (bridges); printed as cy(akkrp); also: cyclic, closure not given here)
SAv-HRP recruitment to MRSA cells [11]: Standout recruiting peptides

cy(kpdew) ([dK][dP][dD][dE][dW]; not fully specified (bridges); printed as cy(kpdew); also: cyclic, closure not given here)
SAv-HRP recruitment to MRSA cells [11]: Standout recruiting peptides
